Assays:
giant foxtail [1] = test: Test A preemergence; assay type: in vivo, Setaria faberii; conditions: Setaria faberi, pre-emergence, 240 h; for pest or weed control at 125 g/ha: 125 g ai/ha, 0 to 100 scale where 0 is no effect and 100 is complete control; for pest or weed control at 500 g/ha: 500 g ai/ha, 0 to 100 scale, 0 no effect, 100 complete control, approx. 10 days
Method in brief: (§1)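 Scoring: eye-based comparison with untreated controls, 0 for no effect through 100 for complete control, at about day 10. Treatments: directed soil spray preemergence; foliar spray postemergence on 2–10 cm plants at the one- to two-leaf stage. Medium: loam soil with sand.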

barnyardgrass = test: Test A postemergence; assay type: in vivo, Echinochloa crus-galli; conditions: Echinochloa crus-galli, post-emergence, 240 h; for pest or weed control at 125 g/ha: 125 g ai/ha, 0 to 100 scale where 0 is no effect and 100 is complete control, read-out: Plant response rating, Barnyardgrass; for pest or weed control at 500 g/ha: 500 g ai/ha, 0 to 100 scale, 0 no effect, 100 complete control, read-out: Plant response rating Barnyardgrass
Method in brief: as §1

giant foxtail [2] = test: Test A postemergence; assay type: in vivo, Setaria faberii; conditions: Setaria faberi, post-emergence, 240 h; for pest or weed control at 125 g/ha: 125 g ai/ha, 0 to 100 scale where 0 is no effect and 100 is complete control, read-out: Plant response rating, Foxtail, Giant; for pest or weed control at 500 g/ha: 500 g ai/ha, 0 to 100 scale, 0 no effect, 100 complete control, read-out: Plant response rating Foxtail, Giant
Method in brief: as §1

morningglory = test: Test A postemergence; assay type: in vivo, Ipomoea spp.; conditions: Ipomoea, post-emergence, 240 h; for pest or weed control at 125 g/ha: 125 g ai/ha, 0 to 100 scale where 0 is no effect and 100 is complete control, read-out: Plant response rating, Morningglory; for pest or weed control at 500 g/ha: 500 g ai/ha, 0 to 100 scale, 0 no effect, 100 complete control, read-out: Plant response rating Morningglory
Method in brief: as §1

pigweed = test: Test A postemergence; assay type: in vivo, Amaranthus retroflexus; conditions: Amaranthus retroflexus, post-emergence; for pest or weed control at 125 g/ha: 125 g ai/ha, 0 to 100 scale where 0 is no effect and 100 is complete control, read-out: Plant response rating, Pigweed; for pest or weed control at 500 g/ha: 240 h, 500 g ai/ha, 0 to 100 scale, 0 no effect, 100 complete control, read-out: Plant response rating Pigweed
Method in brief: as §1

Heteranthera limosa = test: Test B flooded paddy test; assay type: in vivo; conditions: Heteranthera limosa, Flood, 250 g ai/ha; 0 to 100 scale where 0 is no effect and 100 is complete control; read-out: Plant response rating, Ducksalad
Method in brief: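 Plants at 2-leaf stage; pots flooded to 3 cm above soil and compound applied directly into paddy water, depth held throughout. After 13 to 15 days in greenhouse, visual rating versus controls on 0 (no effect) to 100 (complete control) scale.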

blackgrass = test: Test C preemergence; assay type: in vivo, Alopecurus myosuroides; conditions: Alopecurus myosuroides, pre-emergence
Source text: (§2) Seeds of plant species selected from blackgrass (Alopecurus myosuroides), Italian ryegrass (Lolium multiflorum), wheat, winter (winter wheat, Triticum aestivum), galium (catchweed bedstraw, Galium aparine), corn (Zea mays), large (Lg) crabgrass (Digitaria sanguinalis), giant foxtail (Setaria faberii), johnsongrass (Sorghum halepense), lambsquarters (Chenopodium album), morningglory (Ipomoea coccinea), yellow nutsedge (Cyperus esculentus), pigweed (Amaranthus retroflexus), ragweed (common ragweed, Ambrosia elatior), soybean (Glycine max), barnyardgrass (Echinochloa crus-galli), oilseed rape (Brassica napus), waterhemp (common waterhemp, Amaranthus rudis), kochia (Kochia scoparia), wild oat (Avena fatua), surinam grass (Brachiaria decumbens), foxtail, green (green foxtail, Setaria viridis), goosegrass (Eleusine indica), bromegrass, downy (downy bromegrass, Bromus tectorum), nightshade (eastern black nightshade, Solanum ptycanthum), cocklebur (common cocklebur, Xanthium strumarium), cupgrass, woolly (woolly cupgrass, Eriochloa villosa), bermudagrass (Cynodon dactylon), sunflower, (common oilseed sunflower, Helianthus annuus), Russian thistle (Salsola kali), and velvetleaf (Abutilon theophrasti) were planted into a blend of loam soil and sand and treated preemergence with test chemicals formulated in a non-phytotoxic solvent mixture which included a surfactant.
(§3) At the same time, plants selected from these crop and weed species and also barley, winter (winter barley, Hordeum vulgare), windgrass (Apera spica-venti), chickweed (common chickweed, Stellaria media), deadnettle (henbit deadnettle, Lamium amplexicaule), and canarygrass (littleseed canarygrass, Phalaris minor) were planted in pots containing Redi-Earth® planting medium (Scotts Company, 14111 Scottslawn Road, Marysville, Ohio 43041) comprising spaghnum peat moss, vermiculite, wetting agent and starter nutrients and treated with postemergence applications of test chemicals formulated in the same manner. Plants ranged in height from 2 to 18 cm (1- to 4-leaf stage) for postemergence treatments. Treated plants and controls were maintained in a greenhouse for 13 to 15 days, after which time all species were compared to controls and visually evaluated. Plant response ratings, summarized in Table C, are based on a scale of 0 to 100 where 0 is no effect and 100 is complete control. A dash (-) response means no test result.

Italian ryegrass = test: Test C preemergence; assay type: in vivo, Lolium multiflorum; conditions: Lolium multiflorum, pre-emergence
Source text: as §2, §3

wheat, winter = test: Test C preemergence; assay type: in vivo, Triticum aestivum; conditions: Triticum aestivum, pre-emergence
Source text: as §2, §3

lambsquarters = test: Test C preemergence; assay type: in vivo, Chenopodium album; conditions: Chenopodium album, pre-emergence
Source text: as §2, §3

velvetleaf = test: Test C preemergence; assay type: in vivo, Abutilon theophrasti; conditions: Abutilon theophrasti, pre-emergence
Source text: as §2, §3

[3] = read-out: Foxtail, Giant plant response rating

What does the source list for `FC(F)(F)c1cnn(-c2ccccc2Oc2ncc(Br)cn2)c1` [Compound 18, 5-bromo-2-[2-[4-(trifluoromethyl)-1H-pyrazol-1-yl]phenoxy]pyrimidine]?
pest or weed control at 125 g/ha (giant foxtail [1]; read-out: Plant response rating, Foxtail, Giant): 100%; pest or weed control at 500 g/ha (giant foxtail [1]; [3]): 100%; pest or weed control at 125 g/ha (barnyardgrass): 60%; pest or weed control at 500 g/ha (barnyardgrass): 100%; pest or weed control at 125 g/ha (giant foxtail [2]): 80%; pest or weed control at 500 g/ha (giant foxtail [2]): 100%; pest or weed control at 125 g/ha (morningglory): 60%; pest or weed control at 500 g/ha (morningglory): 100%; pest or weed control at 125 g/ha (pigweed): 100%; pest or weed control at 500 g/ha (pigweed): 100%; pest or weed control at 250 g/ha (Heteranthera limosa): 90%; pest or weed control at 62 g/ha (blackgrass; 62 g ai/ha, preemergence, scale 0 (no effect) to 100 (complete control), read-out: Blackgrass plant response rating): 80%; pest or weed control at 125 g/ha (blackgrass; 125 g ai/ha, preemergence, scale 0 (no effect) to 100 (complete control), read-out: Blackgrass plant response rating): 90%; pest or weed control at 250 g/ha (blackgrass; 250 g ai/ha, preemergence, scale 0 (no effect) to 100 (complete control), read-out: Blackgrass plant response rating): 90%; pest or weed control at 31 g/ha (blackgrass; Preemergence, 31 g ai/ha, scale 0 to 100, 0 no effect, 100 complete control, read-out: Plant response rating, Blackgrass): 10%; pest or weed control at 62 g/ha (Italian ryegrass; 62 g ai/ha, preemergence, scale 0 (no effect) to 100 (complete control), read-out: Ryegrass, Italian plant response rating): 5%; pest or weed control at 125 g/ha (Italian ryegrass; 125 g ai/ha, preemergence, scale 0 (no effect) to 100 (complete control), read-out: Ryegrass, Italian plant response rating): 45%; pest or weed control at 250 g/ha (Italian ryegrass; 250 g ai/ha, preemergence, scale 0 (no effect) to 100 (complete control), read-out: Ryegrass, Italian plant response rating): 85%; pest or weed control at 31 g/ha (Italian ryegrass; Preemergence, 31 g ai/ha, scale 0 to 100, 0 no effect, 100 complete control, read-out: Plant response rating, Ryegrass, Italian): 0%; plant injury at 62 g/ha (wheat, winter; 62 g ai/ha, preemergence, scale 0 (no effect) to 100 (complete control), read-out: Wheat plant response rating): 5%; plant injury at 125 g/ha (wheat, winter; 125 g ai/ha, preemergence, scale 0 (no effect) to 100 (complete control), read-out: Wheat plant response rating): 35%; plant injury at 250 g/ha (wheat, winter; 250 g ai/ha, preemergence, scale 0 (no effect) to 100 (complete control), read-out: Wheat plant response rating): 35%; plant injury at 31 g/ha (wheat, winter; Preemergence, 31 g ai/ha, scale 0 to 100, 0 no effect, 100 complete control, read-out: Plant response rating, Wheat): 0%; pest or weed control at 62 g/ha (lambsquarters; 62 g ai/ha, preemergence, scale 0 (no effect) to 100 (complete control), read-out: Lambsquarters plant response rating): 50%; pest or weed control at 125 g/ha (lambsquarters; 125 g ai/ha, preemergence, scale 0 (no effect) to 100 (complete control), read-out: Lambsquarters plant response rating): 65%; pest or weed control at 250 g/ha (lambsquarters; 250 g ai/ha, preemergence, scale 0 (no effect) to 100 (complete control), read-out: Lambsquarters plant response rating): 80%; pest or weed control at 31 g/ha (lambsquarters; Preemergence, 31 g ai/ha, scale 0 to 100, 0 no effect, 100 complete control, read-out: Plant response rating, Lambsquarters): 30%; pest or weed control at 62 g/ha (velvetleaf; 62 g ai/ha, preemergence, scale 0 (no effect) to 100 (complete control), read-out: Velvetleaf plant response rating): 100%; pest or weed control at 125 g/ha (velvetleaf; 125 g ai/ha, preemergence, scale 0 (no effect) to 100 (complete control), read-out: Velvetleaf plant response rating): 100%; pest or weed control at 250 g/ha (velvetleaf; 250 g ai/ha, preemergence, scale 0 (no effect) to 100 (complete control), read-out: Velvetleaf plant response rating): 100%; pest or weed control at 31 g/ha (velvetleaf; Preemergence, 31 g ai/ha, scale 0 to 100, 0 no effect, 100 complete control, read-out: Plant response rating, Velvetleaf): 60%

Which results are given for `FC(F)(F)c1ccn(-c2ccccc2Oc2ncc(Cl)cn2)n1` [Compound 2, 5-chloro-2-[2-[3-(trifluoromethyl)-1H-pyrazol-1-yl]phenoxy]pyrimidine]?
pest or weed control at 125 g/ha (giant foxtail [1]; [3]): 80%; pest or weed control at 500 g/ha (giant foxtail [1]; [3]): 100%; pest or weed control at 125 g/ha (barnyardgrass): 30%; pest or weed control at 500 g/ha (barnyardgrass): 70%; pest or weed control at 125 g/ha (giant foxtail [2]): 10%; pest or weed control at 500 g/ha (giant foxtail [2]): 80%; pest or weed control at 125 g/ha (morningglory): 30%; pest or weed control at 500 g/ha (morningglory): 70%; pest or weed control at 125 g/ha (pigweed): 60%; pest or weed control at 500 g/ha (pigweed): 100%; pest or weed control at 250 g/ha (Heteranthera limosa): 45%

Reference: patent US9695155B2, “Herbicidal substituted pyrimidinyloxy benzene compounds” (E. I. DU PONT DE NEMOURS AND COMPANY, priority 2013, dated 2017)
